No end group written: not given here.
Assays:
[1] = tested on: HD11 cells; assay: Uptake of Alexa-Fluor 488 labeled ODN-2006 by HD11 cells (flow cytometry); type: cell-based, chicken; details: 5 μM peptide; 2.5 nM Alexa-Fluor 488 labeled ODN-2006; 4 h
Description: (§1) FIG. 13A-13B—CMAP27 derived peptides enhance DNA uptake and DNA-induced activation. A) HD11 cells were stimulated during 4 h with 2.5 nM Alexa-Fluor 488 labeled ODN-2006 in the absence and presence of CMAP27 derived peptides (5 μM), after which DNA uptake was analyzed by flow cytometry. B) Supernatants of HD11 cells stimulated for longer time (17 h) under these same conditions were collected and used for determination of nitric oxide production using the Griess assay. Data represents means±SEM from 3-4 independent experiments.
(§2) To study effects of peptides on the uptake of DNA, HD11 cells were seeded 3×10^5 cells in 24-wells plates, stimulated during 4 h with 2.5 nM Alexa-Fluor 488 labeled ODN-2006 in the absence and presence of CMAP27 derived peptides (5 μM), after which DNA uptake was analyzed by flow cytometry. Activation of HD11 cells was examined by collecting supernatants after 17 h under the same conditions and determination of nitric oxide production.

[2] = tested on: HD11 cells; assay: Neutralization of LPS-induced interleukin-1β transcription in HD11 cells (real time PCR); type: cell-based, chicken; details: 20 μM peptide pre-incubated with 50 ng/ml LPS; 4 h
Description: (§3) FIG. 11A-11B—Neutralization of lipopolysaccharide-induced interleukin-1β induction and nitric oxide production in HD11 cells by CMAP27 derived peptides. HD11 cells were seeded in 96 wells tissue culture treated plates (2×10^5 cell/mL) in RPMI-1640/10% FCS. Final concentrations of 50 ng/ml LPS were pre-incubated with or without 20 μM peptide for 30 min at 37° C. (5% CO2), applied to the cells and incubated for 4 h and 24 h. A) Transcription levels of interleukin-1 were determined by real time PCR (4 h only). B) Supernatants were collected for the determination of nitric oxide production (24 h incubations only) using the Griess assay. Significance levels: *P<0.05, **P<0.01, ***P<0.001. Data represents means±SEM from 3-4 independent experiments.
as §3, with “FIG. 12A-12B—Substitution” for “FIG. 11A-11B—Neutralization”, “of phenylalanine residues by tryptophan enhances the” for “of lipopolysaccharide-induced interleukin-1β induction and nitric oxide production”, “in vitro LPS neutralization capacity of” for “in HD11 cells by”, “h or” for “h and”
(§4) HD11 cells were seeded in 96 wells tissue culture treated plates (2×10^5 cell/mL) in RPMI-1640/10% FCS. Final concentrations of 50 ng/ml Salmonella minnesota LPS were pre-incubated with or without 20 μM peptide for 30 min at 37° C. (5% CO2), applied to the cells and incubated for 4 h and 24 h. A) Transcription levels of interleukin-1 were determined by real time PCR (4 h only). B) Supernatants were collected for the determination of nitric oxide production (24 h incubations only) using the Griess assay.

[3] = tested on: HD11 cells; assay: DNA-induced nitric oxide production in HD11 cells (Griess assay); type: cell-based, chicken; details: 5 μM peptide; 2.5 nM ODN-2006; 17 h
Description: as §1, §2

[4] = tested on: HD11 cells; assay: Neutralization of LPS-induced nitric oxide production in HD11 cells (Griess assay); type: cell-based, chicken; details: 20 μM peptide pre-incubated with 50 ng/ml LPS; 24 h
Description: as §3
as §3, with “FIG. 12A-12B—Substitution” for “FIG. 11A-11B—Neutralization”, “of phenylalanine residues by tryptophan enhances the” for “of lipopolysaccharide-induced interleukin-1β induction and nitric oxide production”, “in vitro LPS neutralization capacity of” for “in HD11 cells by”, “h or” for “h and”
as §4

[5] = tested on: HD11 cells; assay: Chemokine induction in HD11 cells (real time PCR); type: cell-based, chicken; details: 20 μM peptide
Description: FIG. 10—Chemokine induction by CMAP27 derived peptides in HD11 cells. HD11 cells were seeded in 96 wells tissue culture treated plates (2×10^5 cell/mL) in RPMI-1640/10% FCS and incubated at 37° C. (5% CO2) with peptide (20 μM) supplemented medium during 4 h (open bars) or 24 h (closed bars). Transcription levels of interleukin-1β, IL-8 (CXCLi2), monocyte chemotactic protein-3 (MCP-3) and RANTES (CCLi4) were determined by real time PCR. Significance levels: *P<0.05, **P<0.01, ***P<0.001. Data represents means±SEM from 3-4 independent experiments.
HD11 cells, a chicken macrophage cell line, were seeded in 96 wells tissue culture treated plates (2×10^5 cell/mL) in RPMI-1640/10% FCS and incubated at 37° C. (5% CO2) with peptide (20 μM) supplemented medium during 4 h or 24 h. Transcription levels of interleukin-1β, -8 (CXCLi2), monocyte chemotactic protein-3 (MCP-3) and RANTES (CCLi4) were determined by real time PCR.

[6] = tested on: J774.A1 cells; assay: Inhibition of APEC O78-induced TNFα production by macrophages (ELISA); type: cell-based, murine; details: 5 μM peptide, 2 h, DMEM/10% FCS; for inhibition of TNFα production induced by heat-killed bacteria: 3×10^5 CFU/ml heat-killed APEC O78; for inhibition of TNFα production induced by live bacteria: 3×10^5 CFU/ml live APEC O78
Description: (§5) FIG. 9A-9C—Antibacterial activity of CMAP27 derived peptides in vitro against an avian pathogenic Escherichia coli O78 (APEC O78) field isolate. A) Antibacterial activity of peptides (5 μM) against APEC O78 (2×10^6 CFU/ml) in 50% Mueller Hinton broth using colony count assays. B) Antibacterial activity of peptides (5 μM) against APEC O78 (3×10^5 CFU/ml) in DMEM containing 10% fetal calf serum (FCS) using colony count assays. C) TNFα production by J774.A1 cells (ELISA) after 2 h incubation at 37° C. with live or heat-killed APEC O78 (3×10^5 CFU/m) in DMEM/10% FCS, in the presence or absence of 5 μM peptide. Data represents means±SEM from 3 independent experiments.
Peptide-mediated inhibition of macrophage activation induced by live or heat-killed APEC O78, was examined using J774.A1 cells, a murine macrophage cell line. For this purpose, J774.A1 cells (150,000 cells/well) cultured in DMEM containing 10% FCS were exposed during 2 h at 37° C. to 3×10^5 CFU/ml APEC O78 with or without 5 μM peptide, after which supernatants were collected and used to determine TNFα production (ELISA).

[7] = tested on: avian pathogenic Escherichia coli O78 (APEC O78) field isolate; assay: Antibacterial colony count assay in DMEM containing 10% fetal calf serum; type: cell-based; details: 5 μM peptide, 3×10^5 CFU/ml, 2 h at 37° C., DMEM/10% FCS
Description: as §5
To test if peptides would be able to inhibit bacteria under more challenging conditions, e.g. in the presence of salts and serum proteins, APEC O78 was incubated with peptide in DMEM medium containing 10% fetal calf serum. In brief, bacterial survival was estimated by incubating 3×10^5 CFU/ml APEC O78 during 2 h at 37° C. in DMEM/10% FCS in the presence or absence of 5 μM peptide, after which serial dilutions were made, spread on agar media and colonies were enumerated after 24 h incubation at 37° C.

## RFGRFLRKIRRFRPKVTITIQGSARF-NH2 [CMAP1-26-NH2]
[1]
  uptake of ODN-2006 by HD11 cells: enhanced the uptake
[2]
  LPS-induced IL-1β expression blocked: 90.8%
[3]
  DNA-induced nitric oxide production: increasing
[4]
  LPS-induced NO production blocked: 96.2%
[5]; 4 h or 24 h
  induction of CXCLi2/IL-8 transcription: induce transcription
  induction of MCP-3 transcription: induce transcription
  induction of proinflammatory cytokine IL-1β transcription: not induced
[5]; prolonged stimulation (24 h) needed
  induction of CCLi4/RANTES transcription: induce transcription
[6]
  inhibition of TNFα production induced by heat-killed bacteria: substantially inhibited
  inhibition of TNFα production induced by live bacteria: substantially inhibited
[7]
  inhibition of bacterial growth (antibacterial activity, in words): substantially inhibited
[7]; detection limit
  surviving bacteria: < 100 cells/ml

## CMAP4-21-NH2: N-terminally truncated variant of CMAP1-21 (RFLRKIRRFRPKVTITIQ-NH2)
[1]
  uptake of ODN-2006 by HD11 cells: enhanced the uptake
[2]
  LPS-induced IL-1β expression blocked: 80.5%
[3]
  DNA-induced nitric oxide production: increasing
[4]
  LPS-induced NO production blocked: 51%
[7]
  inhibition of bacterial growth (antibacterial activity, in words): substantially inhibited

## CMAP7-21-NH2: N-terminally truncated variant of CMAP1-21, 15 amino acid residues (RKIRRFRPKVTITIQ-NH2)
[1]
  uptake of ODN-2006 by HD11 cells: enhanced the uptake
[2]
  LPS-neutralizing activity (block of LPS-induced IL-1β expression, in words): lack LPS-neutralizing activity
[3]
  DNA-induced nitric oxide production: increasing
[5]; 4 h or 24 h
  induction of CXCLi2/IL-8 transcription: maintained a capacity to induce
  induction of MCP-3 transcription: maintained a capacity to induce
[6]
  inhibition of TNFα production induced by heat-killed bacteria: inhibited to some extent
[7]
  inhibition of bacterial growth (antibacterial activity, in words): lacking antibacterial activity

## CMAP1-21-NH2: C-terminally truncated CMAP27 derivative, residues 1-21
[1]
  uptake of ODN-2006 by HD11 cells: enhanced the uptake
[2]
  LPS-induced IL-1β expression blocked: 93.5%
[3]
  DNA-induced nitric oxide production: increasing
[4]
  LPS-induced NO production blocked: 78.9%
[6]
  inhibition of TNFα production induced by heat-killed bacteria: substantially inhibited
  inhibition of TNFα production induced by live bacteria: substantially inhibited
[7]
  inhibition of bacterial growth (antibacterial activity, in words): substantially inhibited
